Assay results as given in paper PMC9236220 (ACS Chemical Biology, 2022).
Read-outs that look alike come from different tables or passages of the source.

What was measured:
[1] = system: kinases; settings: cited from earlier work
[2] = system: SHC014-CoV-nLuc; type: cell-based, bat
[3] = system: SARS-CoV-2 spike protein uptake, Calu-3 cells; type: cell-based
[4] = system: MHV-nLuc; assay: microbe, parasite or virus in culture; type: cell-based, mouse hepatitis virus (MHV); settings: Murine coronavirus, read-out: MHV-nLuc replication IC50
[5] = system: SARS-CoV-2 spike protein uptake, HEK293T-ACE2 cells; type: cell-based
[6] = system: SARS-CoV-2-nLuc; type: cell-based
[7] = system: SARS-CoV-2 spike protein uptake, Caco-2 cells; type: cell-based
[8] = system: WIV1-CoV-nLuc; type: cell-based, bat
[9] = system: Vero cells; settings: cited from earlier work
[10] = system: DBT cells
[11] = system: SARS-CoV-2; settings: cited from earlier work
[12] = system: A549-ACE2 cells; settings: cited from earlier work
[13] = system: SARS-CoV-2; settings: cited from earlier work; remark: listed apart in the source

## CCC(=O)Nc1cc(Nc2cc(NC3CC3)n3ncc(C#N)c3n2)ccc1C [SGC-CK2-1]
[1]
  kinases inhibited at 1 μM: 3 kinases
[2]
  effect on SHC014-CoV replication: dose-dependent decreases in viral replication
[3]
  decrease in spike protein uptake: > 75%
[4]
  IC50: 0.21 µM
[5]
  decrease in spike protein uptake: 70–80%
[6]
  inhibition of SARS-CoV-2-nLuc replication: inhibition of viral replication was observed
[7]
  decrease in spike protein uptake: > 75%
[8]
  effect on WIV1-CoV replication: dose-dependent decreases in viral replication

## O=C(O)c1ccc2c(c1)nc(Nc1cccc(Cl)c1)c1ccncc12 [silmitasertib]
[9]
  cell toxicity: cell toxicity at micromolar doses
[10]
  effect on cell viability of DBT cells: no effect on cell viability
[4]
  IC50: 0.63 µM
[11]
  antiviral activity pIC50, SARS-CoV-2 in Vero cells: 5.6
[11]; read-out: antiviral activity IC50, SARS-CoV-2 in Vero cells
  IC50: 2.5 µM
[12]
  cell toxicity: cell toxicity at micromolar doses
[13]
  inhibition of SARS-CoV-2 infection pIC50, A549-ACE2 cells: < 5
[13]; read-out: inhibition of SARS-CoV-2 infection IC50, A549-ACE2 cells
  IC50: > 10 µM

## CC(=O)Nc1ccc2ccn(-c3cc(NC4CCC4)n4ncc(C#N)c4n3)c2c1 [Compound 17]
[4]
  IC50: < 1 µM
